The text below walks through data of patent US20240174652A1, “NOVEL DIOXANE DERIVATIVES” (Boehringer Ingelheim International GmbH, priority 2022, published 2024).

For the assay, the target named is human metabotropic Glutamate 4 receptor (Homo sapiens (Human), UniProt Q14833). As to the kind of experiment: Assay A: in vitro testing of mGluR4 potency (cAMP HTRF, glutamate/forskolin stimulated). It counts as cell-based. To be noted: HEK293 cells overexpressing human mGluR4, 10 uM L-glutamic acid, 1 uM forskolin. As to the method:
A. In Vitro Testing of mGluR4 Potency The in vitro activity of the compounds according to the invention may be investigated as follows:
The HEK293 cell overexpressing the human metabotropic Glutamate 4 receptor are thawed at 37° C. and immediately diluted with cell culture medium. After centrifugation, the cell pellet is re-suspended in medium and then distributed from a stirred spinner flask into the wells of the assay plate. The plates are incubated for one hour at room temperature before they are incubated for 24 hours at 37° C./5% CO2. After washing the cells in the plate three times with 80 uL HBSS/HEPES buffer (10 uL buffer remained in the wells after washing), 5 uL per well of compounds diluted in HBSS/HEPES buffer containing 0.2% BSA (final concentration: 0.1%) and 1 mM IBMX (final concentration: 0.5 mM) are added to the wells of the assay plate. Thereafter 5 uL per well of L-Glutamic acid (final concentration: 10 uM), forskolin (final concentration: 1 uM) and 1 mM IBMX (final concentration: 0.5 mM) dissolved in HBSS/HEPES buffer containing 0.2% BSA (final concentration: 0.1%) are added to the assay plate (final DMSO concentration: 1%). Several wells of the assay plate are used either for the positive and the negative controls or for the cAMP standard curve. The assay plate is incubated for 30 minutes at room temperature. Then 5 ul per well of Anti-cAMP-Antibody-d2 solution and 5 ul per well of cAMP-Europium Cryptate dilution are added to all wells of the plate and the plate is incubated another 60 minutes light protected at room temperature. The emission at 615 nm and 665 nm (Excitation wavelength: 320 nm) are measured on the EnVision™ reader (Perkin Elmer). The ratio between the emission at 665 nm and 615 is calculated by the reader. The whole assay is performed in the dark or under green light.
The cAMP standard is prepared by diluting the cAMP stock solution with HBSS/Hepes buffer: 5 μl/well of the cAMP dilutions (in HBSS/Hepes buffer containing 1 mM IBMX and 0.2% BSA—final concentration: 0.5 mM IBMX and 0.1% BSA) are added to 10 ul/well HBSS/Hepes buffer plus 5 ul/well 4% DMSO in HBSS/Hepes containing 0.2% BSA (final DMSO concentration: 1% —like in the wells containing compounds) in the wells of the assay plate. The final cAMP concentrations in the assay plate are: 0, 0.17, 0.69, 2.78, 11.1, 44.5, 178, and 712 nM (two wells/cAMP concentration).
Each assay microtiter plate contained also wells with vehicle controls instead of compound as controls for L-Glutamic acid induced signal (negative control; 100% CTL; 10 uM L-Glutamic acid+1 uM forskolin+0.5 mM IBMX+1% DMSO) and wells with vehicle controls without L-Glutamic acid as controls for non-specific changes in signal (positive control; 0% CTL; 0 uM L-Glutamic acid+1 uM forskolin+0.5 mM IBMX+1% DMSO).
The analysis of the data is performed by the calculation the ratio between the emission at 665 nm and the emission at 615 nm (Em665/Em615 ratio). Thereafter the signals of the compounds are normalized using the positive and negative controls by the following formula:
PoC=100×((Signal Sample−Positive Control)/(Negative Control−Positive Control))

Setting [1] is: compounds of the present invention.
Setting [2] is: prior-art compounds of WO2019/138017.

Chain of human metabotropic Glutamate 4 receptor (Q14833 33-912): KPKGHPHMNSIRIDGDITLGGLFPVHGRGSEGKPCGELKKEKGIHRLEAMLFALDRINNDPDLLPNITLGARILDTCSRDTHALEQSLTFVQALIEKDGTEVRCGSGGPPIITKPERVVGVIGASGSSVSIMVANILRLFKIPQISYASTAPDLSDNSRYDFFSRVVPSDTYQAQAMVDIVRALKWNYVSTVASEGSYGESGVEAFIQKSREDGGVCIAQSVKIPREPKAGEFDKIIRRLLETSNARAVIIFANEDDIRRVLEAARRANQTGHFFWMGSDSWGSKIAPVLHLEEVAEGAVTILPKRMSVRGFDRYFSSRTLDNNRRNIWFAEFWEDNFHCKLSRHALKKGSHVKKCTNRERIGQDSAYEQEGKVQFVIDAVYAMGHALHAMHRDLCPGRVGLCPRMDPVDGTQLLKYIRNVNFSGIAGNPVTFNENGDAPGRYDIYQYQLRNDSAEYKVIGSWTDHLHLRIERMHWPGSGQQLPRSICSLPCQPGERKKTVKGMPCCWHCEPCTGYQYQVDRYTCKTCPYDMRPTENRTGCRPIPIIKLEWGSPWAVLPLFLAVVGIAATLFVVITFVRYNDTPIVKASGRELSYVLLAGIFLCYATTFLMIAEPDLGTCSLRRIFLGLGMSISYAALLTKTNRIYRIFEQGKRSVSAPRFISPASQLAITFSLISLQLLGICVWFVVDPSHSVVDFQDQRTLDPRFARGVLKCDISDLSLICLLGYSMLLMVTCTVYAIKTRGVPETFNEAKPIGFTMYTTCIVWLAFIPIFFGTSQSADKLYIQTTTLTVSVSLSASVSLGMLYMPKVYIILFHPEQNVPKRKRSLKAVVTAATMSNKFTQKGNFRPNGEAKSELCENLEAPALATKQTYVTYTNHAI

`Cc1cnc(C(=O)NC(c2nc3cc(C(F)(F)F)ccc3n2C)C2COCCO2)cn1` (single isomer, unassigned) [Example 1-1, N-[(1,4-dioxan-2-yl)[1-methyl-5-(trifluoromethyl)-1H-1,3-benzodiazol-2-yl]methyl]-5-methylpyrazine-2-carboxamide] registered an IC50 under setting [1] of 67 nM. Same read-out and setting: the figure for `Cc1cnc(C(=O)NC(c2nc3cc(Cl)ccc3n2CC(F)F)C2COCCO2)cn1` (single isomer, unassigned) [Example 4, N-{[5-chloro-1-(2,2-difluoroethyl)-1H-1,3-benzodiazol-2-yl](1,4-dioxan-2-yl)methyl}-5-methylpyrazine-2-carboxamide] is 7 nM; for `Cc1cnc(C(=O)NC(c2nc3cc(Cl)ccc3n2CC(F)F)C2COCCO2)cn1` (single isomer, unassigned) [Example 5] it is 62 nM.

Consider `Cc1cnc(C(=O)NC(c2nc3ccc(C(F)(F)F)cc3n2CC(F)F)C2COCCO2)cn1` (single isomer, unassigned) [Example 6], for which, under setting [1], 6 nM corresponded to half-maximal inhibition (IC50). `Cc1cnc(C(=O)NC(c2nc3ccc(C(F)(F)F)cc3n2C)C2COCCO2)cn1` (single isomer, unassigned) [Example 7, N-[(1,4-dioxan-2-yl)[1-methyl-6-(trifluoromethyl)-1H-1,3-benzodiazol-2-yl]methyl]-5-methylpyrazine-2-carboxamide]: 70 nM corresponded to half-maximal inhibition under setting [1] (IC50). Under setting [1], `Cc1cnc(C(=O)NC(c2nc3cc(F)c(F)cc3n2CC(F)F)C2COCCO2)cn1` (single isomer, unassigned) [Example 9, N-{[1-(2,2-difluoroethyl)-5,6-difluoro-1H-1,3-benzodiazol-2-yl](1,4-dioxan-2-yl)methyl}-5-methylpyrazine-2-carboxamide] returned an IC50 of 11 nM. Against the preceding molecule, the IC50 is about 6.4-fold lower. For the molecule `CCn1c(C(NC(=O)c2cnc(C)cn2)C2COCCO2)nc2cc(F)ccc21` (single isomer, unassigned) [Example 10, N-[(1,4-dioxan-2-yl)(1-ethyl-5-fluoro-1H-1,3-benzodiazol-2-yl)methyl]-5-methylpyrazine-2-carboxamide], under setting [1], the IC50 came out at 20 nM. As for `CCn1c(C(NC(=O)c2cnc(C)cn2)C2COCCO2)nc2cc(F)c(F)cc21` (single isomer, unassigned) [Example 11], the IC50 under setting [1] is 15 nM. Turning to `Cc1cnc(C(=O)N[C@H](c2nc3cc(C(F)(F)F)ccc3n2C)[C@H]2COCCO2)cn1` [Example 1, N-[(R)-[(2S)-1,4-dioxan-2-yl][1-methyl-5-(trifluoromethyl)-1H-1,3-benzodiazol-2-yl]methyl]-5-methylpyrazine-2-carboxamide], under setting [1], it took 20 nM to reach half-maximal inhibition (IC50). For `Cc1cnc(C(=O)N[C@H](c2nc3cc(F)ccc3n2CC(F)F)[C@H]2COCCO2)cn1` [Example 2, N-[(R)-[1-(2,2-difluoroethyl)-5-fluoro-1H-1,3-benzodiazol-2-yl][(2S)-1,4-dioxan-2-yl]methyl]-5-methylpyrazine-2-carboxamide], under setting [1], the IC50 stood at 14 nM. This IC50 and that of the molecule before are within 1.5-fold of each other. Under setting [1], `CCn1c([C@@H](NC(=O)c2cnc(C)cn2)[C@H]2COCCO2)nc2cc(C(F)(F)F)ccc21` [Example 3, N-[(R)-[(2S)-1,4-dioxan-2-yl][1-ethyl-5-(trifluoromethyl)-1H-1,3-benzodiazol-2-yl]methyl]-5-methylpyrazine-2-carboxamide] displayed an IC50 of 5 nM.

Consider `Cc1nocc1C(=O)N[C@H](c1nc2cccc(F)c2[nH]1)[C@H]1CC[C@H](C)CC1` [Example 8 in WO2019/ 138017, reference compound], for which 9850 nM corresponded to half-maximal inhibition under setting [2] (IC50). As for `Cc1cnc(C(=O)N[C@H](c2nc3ccc(F)cc3n2CC(F)F)[C@H]2COCCO2)cn1` [Example 8, N-[(R)-[1-(2,2-difluoroethyl)-6-fluoro-1H-1,3-benzodiazol-2-yl][(2S)-1,4-dioxan-2-yl]methyl]-5-methylpyrazine-2-carboxamide], the IC50 under setting [1] turned out to be 31 nM.

Consider `COc1ccc2[nH]c(C(NC(=O)c3conc3C)C3CCCCCCC3)nc2c1F` (centres unmarked) [Example 12 in WO2019/ 138017, reference compound], for which the IC50 under setting [2] is > 10000 nM. The molecule `CCn1nccc1C(=O)N[C@H](c1nc2ccc(C#N)c(F)c2[nH]1)[C@H]1CC[C@H](C)CC1` [Example 125 in WO2019/ 138017, reference compound] came in with an IC50 under setting [2] of 5600 nM.

In the case of `Cn1nccc1C(=O)N[C@H](c1nc2c(F)c(Br)ccc2n1C)[C@H]1CC[C@@H](C)CC1` [Intermediate 250 in WO2019/ 138017 (regioisomere 1), reference compound], the IC50 under setting [2] was determined as 6300 nM. This IC50 and that of the molecule before are within 1.5-fold of each other. Turning to `Cn1nccc1C(=O)N[C@H](c1nc2c(F)c(Br)ccc2n1C)[C@H]1CC[C@H](C)CC1` [Intermediate 250 in WO2019/ 138017 (regioisomere 2), reference compound], the IC50 under setting [2] stood at 4000 nM.
